Assay results taken from ChEMBL document CHEMBL1149052, “Pentacyclic triterpenes derived from Maprounea africana are potent inhibitors of HIV-1 reverse transcriptase” (J Nat Prod, 1994).
pIC50: −log10 of the molar value.

Target: Human immunodeficiency virus type 1 reverse transcriptase (Human immunodeficiency virus 1, UniProt Q72547)
Test: Inhibition of HIV1 reverse transcriptase

| pIC50 | SMILES |
| --- | --- |
| 5.47 | CC1(C)CC[C@]2(C(=O)O)CC=C3[C@]4(C)CC[C@H]5C(C)(C)[C@@H](O)[C@H](O)C[C@]5(C)[C@H]4CC[C@@]3(C)[C@@H]2C1 |
| 5.31 | CC1(C)CC[C@]2(C(=O)O)CC=C3[C@]4(C)CC[C@H]5C(C)(C)[C@@H](O)C[C@@H](O)[C@]5(C)[C@H]4CC[C@@]3(C)[C@@H]2C1 |
| 4.60 | CC1(C)CC[C@]2(C(=O)O)CC=C3[C@]4(C)CC[C@H]5C(C)(C)[C@@H](O)CC[C@]5(C)[C@H]4CC[C@@]3(C)[C@@H]2C1 [ALEURITOLIC ACID] |

Further lines, the molecule ahead of its results:

| SMILES | pIC50 |
| --- | --- |
| CC1(C)CC[C@]2(C(=O)O)CC=C3[C@]4(C)CC[C@H]5C(C)(C)[C@@H](OC(=O)c6ccc(O)cc6)C[C@@H](O)[C@]5(C)[C@H]4CC[C@@]3(C)[C@@H]2C1 | 5.43 |
| CC[C@H]1CN2CCc3cc(OC)c(OC)cc3[C@@H]2C[C@@H]1CC1=NCCc2cc(OC)c(OC)cc21 | 4.85 |
| CC1(C)CC[C@]2(C(=O)O)CC=C3[C@]4(C)CC[C@H]5C(C)(C)[C@@H](OC(=O)c6ccc(O)cc6)[C@H](OC(=O)c6ccc(O)cc6)C[C@]5(C)[C@H]4CC[C@@]3(C)[C@@H]2C1 | 5.43 |
| CC(=O)O[C@H]1CC[C@]2(C)[C@H]3CC[C@]4(C)C(=CC[C@@]5(C(=O)O)CCC(C)(C)C[C@H]54)[C@]3(C)CC[C@H]2C1(C)C [ACETYL ALEURITOLIC ACID] | 3.87 |
| COc1cc2c(ccc3c4cc(OC)c(OC)cc4c[n+](C)c23)cc1O [FAGARONINE] | 4.89 |

Target: not listed separately
Test: Inhibition of HIV2 reverse transcriptase
Design: species or system Human immunodeficiency virus 2

| pIC50 | SMILES |
| --- | --- |
| 4.25 | CC1(C)CC[C@]2(C(=O)O)CC=C3[C@]4(C)CC[C@H]5C(C)(C)[C@@H](O)[C@H](O)C[C@]5(C)[C@H]4CC[C@@]3(C)[C@@H]2C1 |
| 4.27 | CC1(C)CC[C@]2(C(=O)O)CC=C3[C@]4(C)CC[C@H]5C(C)(C)[C@@H](O)C[C@@H](O)[C@]5(C)[C@H]4CC[C@@]3(C)[C@@H]2C1 |
| 4.10 | CC1(C)CC[C@]2(C(=O)O)CC=C3[C@]4(C)CC[C@H]5C(C)(C)[C@@H](O)CC[C@]5(C)[C@H]4CC[C@@]3(C)[C@@H]2C1 [ALEURITOLIC ACID] |

The remaining lines, values behind:

| SMILES | pIC50 |
| --- | --- |
| CC1(C)CC[C@]2(C(=O)O)CC=C3[C@]4(C)CC[C@H]5C(C)(C)[C@@H](OC(=O)c6ccc(O)cc6)C[C@@H](O)[C@]5(C)[C@H]4CC[C@@]3(C)[C@@H]2C1 | 4.23 |
| CC1(C)CC[C@]2(C(=O)O)CC=C3[C@]4(C)CC[C@H]5C(C)(C)[C@@H](OC(=O)c6ccc(O)cc6)[C@H](OC(=O)c6ccc(O)cc6)C[C@]5(C)[C@H]4CC[C@@]3(C)[C@@H]2C1 | 4.54 |
| CC(=O)O[C@H]1CC[C@]2(C)[C@H]3CC[C@]4(C)C(=CC[C@@]5(C(=O)O)CCC(C)(C)C[C@H]54)[C@]3(C)CC[C@H]2C1(C)C [ACETYL ALEURITOLIC ACID] | < 3.70 |
